Patent publication US20050272098A1, “Quantitation of endothelial microparticles” (priority 2004, published 2005)
Where “and” joins values, the source holds several entries; their conditions need not be identical. Equal entries are not always repeated.

How the values were obtained:
HCAEC = test: Release of CAM-specific EMP from TNF-α-activated HCAEC, two-color flow cytometry with TruCount beads; format: cell-based, human; settings: 24 hours
Method: HCAECs were purchased from Cambrex Bio Science (Walkersville, Md.) and cultured according to the supplier's specifications. All experiments were performed on confluent cells. EC were treated with 10 ng/mL TNF-α alone or with the addition of fluvatstain (0.1 μmol/mL) or ROK inhibitor, Y-27632 (10 μmol M/L). Controls were un-treated. After 24 hours culture supernatants from flasks containing HCAEC were collected and centrifuged for 30 min at 17,570×g, (4° C.). Pellets were re-suspended in 1 mL of PBS and were analyzed on the same day. For single platform method, 3 μL each of FITC-conjugated and PE-conjugated monoclonal antibodies against the above mentioned CAMs plus 50 μL of re-suspended pellet were added to tubes (two antibodies/tube) preloaded with fluorescent TruCount™ bead lyophilized pellets (Becton Dickinson Biosciences, San Jose, Calif.). Tubes were incubated for 20 min at room temperature. Analysis of EMPs was performed using a FACScan Flow Cytometer (Becton Dickinson Biosciences, San Jose, Calif.). The EMPs were excited with 488 nm light from a 15 mW argon laser. Logarithmic green and red fluorescences of FITC and PE were measured through 530/30 nm and 585/42 nm bandpass filters, respectively. Data from 2,000 events were acquired and analyzed with the use of CELLQuest™ software (version 3.3, Becton Dickinson). The absolute number of EMPs was calculated from the appropriate dot plot values entered into the following formula: [formula] The total number of beads per tube is supplied by the manufacturer and varies among lot numbers. RhoA Activity Statistical analysis was performed using SPSS 10.0.7 statistical software (SPSS Inc., Chicago, Ill.). Values are stated as mean±SEM. One-way ANOVA was used to compare means from three or more groups. In cases where the data were not normally distributed, the Mann-Whitney rank sum test was used. A value of p<0.05 was considered as significant for all tests.

RhoA = RhoA activity pull-down assay (Rhotekin Rho Binding Domain agarose, western blot) in HCAEC; format: cell-based, human; settings: TNF-α 10 ng/mL, 24 hours
Method: HCAECs were purchased from Cambrex Bio Science (Walkersville, Md.) and cultured according to the supplier's specifications. All experiments were performed on confluent cells. EC were treated with 10 ng/mL TNF-α alone or with the addition of fluvatstain (0.1 μmol/mL) or ROK inhibitor, Y-27632 (10 μmol M/L). Controls were un-treated. After 24 hours culture supernatants from flasks containing HCAEC were collected and centrifuged for 30 min at 17,570×g, (4° C.). Pellets were re-suspended in 1 mL of PBS and were analyzed on the same day. RhoA activity was determined by a pull-down assay. The cell lysates were incubated with Rhotekin Rho Binding Domain agarose for 45 minutes. The agarose beads were collected and electrophoresed in 8-16% SDS-PAGE gel (Cambrex, Rockland, Me.). GDP and GTP-labeling of cell lysates served as negative and positive controls, respectively. Western blotting was performed with RhoA antibody at a dilution of 1:200. The blot densities were analyzed with Mocha Image Analysis (version 1.2.10).

[1] = HCAEC, TNF-α 10 ng/mL plus Fluvastatin 0.1 μM/L, mean ± SEM
[2] = HCAEC, TNF-α 10 ng/mL plus Fluvastatin 0.1 μM/L, mean ± SEM, listed as Flu
[3] = HCAEC, TNF-α 10 ng/mL plus Y-27632 (10 μmol M/L), mean ± SEM
[4] = HCAEC, TNF-α 10 ng/mL alone, mean ± SEM, six experiments
[5] = HCAEC, TNF-α 10 ng/mL, versus control, not significant

With `CC(C)n1c(/C=C/C(O)CC(O)CC(=O)O)c(-c2ccc(F)cc2)c2ccccc21` (centres unmarked) [Fluvastatin] the “absolute count of EMP, CD51 (Vitronectin)” value (“absolute count of EMP, CD51” for short) (HCAEC; [1]) was 43 ±7.3 ×10^6/mL, the “absolute count of EMP, CD62E (ELAM)” value (HCAEC; [1]) was 80 ± 7 ×10^6/mL and the “absolute count of EMP, CD105 (Endoglin)” value (HCAEC; [1]) was 45±7.6 ×10^6/mL. The “absolute count of EMP, CD31 (PECAM-1)” value (HCAEC; [2]) was 231 ± 80 ×10^6/mL, the “absolute count of EMP, CD51” value (HCAEC; [2]) was 43 ± 7 ×10^6/mL and the “absolute count of EMP, CD 54 (ICAM-1)” value (HCAEC; [2]) was 125 ± 35 ×10^6/mL. The “absolute count of EMP, CD105 (Endoglin)” value (HCAEC; [2]) was 45 ± 8 ×10^6/mL, the “absolute count of EMP, CD106 (VCAM-1)” value (HCAEC; [2]) was 167 ± 45 ×10^6/mL and the “suppression of CD62+ EMP” value (HCAEC; TNF-α-activated HCAEC, versus TNF-α alone, not statistically significant) was 19%.

For `C[C@@H](N)[C@H]1CC[C@H](C(=O)Nc2ccncc2)CC1` [Y-27632], the “absolute count of EMP, CD51” value (HCAEC; [3]) was 44 ± 10 ×10^6/mL, the “absolute count of EMP, CD62E (ELAM)” value (HCAEC; [3]) was 65 ± 13 ×10^6/mL and the “absolute count of EMP, CD105 (Endoglin)” value (HCAEC; [3]) was 56±13 ×10^6/mL.

In the case of tumor necrosis factor-α [TNF-α], the “absolute count of EMP, CD31 (PECAM-1)” value (HCAEC; [4]) is reported as 233±77 ×10^6/mL, the “absolute count of EMP, CD51” value (HCAEC; [4]) is reported as 76.4±46 ×10^6/mL and 76 ± 46 ×10^6/mL and the “absolute count of EMP, CD 54 (ICAM-1)” value (HCAEC; [4]) is reported as 129 ± 44 ×10^6/mL. The “absolute count of EMP, CD62E (ELAM)” value (HCAEC; [4]) was 99 ± 3 ×10^6/mL, the “absolute count of EMP, CD105 (Endoglin)” value (HCAEC; [4]) was 124±34 ×10^6/mL and the “increase of CD54 positive EMP” value (HCAEC; [5]) was 57%. The “increase of CD62 positive EMP” value (HCAEC; [5]) was 15% and the RhoA activation (RhoA) was “induced”.
